Test results: patent publication US9221868B2, “Uridine di- or tri-phosphate derivatives and uses thereof” (BAR-ILAN UNIVERSITY, priority 2010, dated 2015)

Experiments:
[1] = test system: intraocular pressure in normotense rabbits; experiment: Intraocular pressure (IOP) in normotense rabbits; assay type: in vivo, New Zealand white rabbits; conditions: for Reduction of IOP: applied to the cornea, 100 μM, 10 μl
Experimental: Twenty-four male New Zealand white rabbits (2.5±0.5 kg) were kept in individual cages with free access to food and water on controlled 12 h/12 h light/dark cycles. All the protocols used adhere to the Association for Research in Vision and Ophthalmology (ARVO) Statement for the Use of Animals in Ophthalmology and Vision Research and also are in accordance with the European Communities Council Directive (86/609/EEC).
Intraocular pressure (IOP) was measured by means of a TonoVET rebound tonometer supplied by Tiolat Oy (Helsinki, Finland). […] For single dose experiments, different analogues were applied unilaterally to the cornea at a concentration of 100 μM and a fixed volume of 10 μl. The contralateral eye received the same volume of saline solution (0.9% NaCl, vehicle). Two IOP measurements were taken before any analogue was instilled. Experiments were performed following a blinded design where no visible indication was given to the experimenter as to the nature of the applied solution. IOP was followed up to 8 h to study the time course of the effect. Some of the analogues were assayed over a range of doses from 1 nM to 100 μM to generate dose-response curves. For these experiments, […] was measured as the maximal response obtained with each dose of the analogue. Dose-response curves were calculated by plotting the IOP value for given concentration versus that concentration (from 1 nM to 100 μM). pD2 values were obtained by fitting the values to a dose-response-curve equation according to ORIGIN8.0 software. With the pD2 value it was possible to calculate the EC50 by multiplying by −1 and then take the antilogarithm. The obtained value is the EC50 expressed in molar concentration. In all experiments, on any given day, only a single dose was tested on a single animal, which was washed out at least 2 days between doses. […]
All data are presented as the means±s.e.m. Significant differences were determined by two-tailed Student's t-tests. […]

[2] = biological target: T1, P2Y6-R (Homo sapiens, UniProt Q15077); experiment: [Ca2+]i increase in 1321N1 astrocytoma cells expressing P2Y6-R; assay type: cell-based; conditions: for EC50: 1321N1 astrocytoma cells, [Ca2+]i, read-out: Potencies (EC50) at the P2Y6-R
T1 construct: expressed in transfected cells; host or cells: 1321N1 astrocytoma cells
T1 sequence (Q15077 whole entry): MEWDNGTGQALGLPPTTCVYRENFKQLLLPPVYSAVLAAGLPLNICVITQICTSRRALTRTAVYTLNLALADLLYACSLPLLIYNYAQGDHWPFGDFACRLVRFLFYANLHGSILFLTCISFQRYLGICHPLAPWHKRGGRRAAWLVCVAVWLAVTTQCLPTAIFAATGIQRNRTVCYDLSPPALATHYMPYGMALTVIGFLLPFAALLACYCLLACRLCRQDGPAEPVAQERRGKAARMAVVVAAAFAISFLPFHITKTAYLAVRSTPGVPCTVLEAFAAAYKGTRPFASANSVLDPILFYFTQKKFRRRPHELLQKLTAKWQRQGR
Experimental: Green fluorescent protein (GFP) constructs of human P2Y2-R, P2Y4-R and P2Y6-R were expressed in 1321N1 astrocytoma cells, which lack endogenous expression of P2X- and P2Y-receptors. The respective cDNA of the receptor gene was cloned into a pEGFPN1 vector. After transfection using FuGENE 6 Transfection Reagent (Roche Molecular Biochemicals, Mannheim, Germany), the cells were selected with 0.5 mg/ml G418 (geneticine; Merck Chemicals, Darmstadt, Germany) and grown in Dulbecco's modified Eagles' medium (DMEM) supplemented with 10% fetal calf serum, 100 U/ml penicillin and […] at 37° C. and 5% CO2. The expression and cell membrane localization of the respective P2Y receptors was confirmed through the analysis of the GFP fluorescence. The functionality of the expressed GFP-labeled receptor in cells was verified by recording a change of [Ca^2+]i after stimulation with the appropriate receptor agonist.
1321N1 astrocytoma cells transfected with the respective plasmid for P2YR-GFP expression plated on coverslips (22 mm diameter) and grown to approximately 80% density were incubated with 2 μM fura 2/AM and 0.02% pluronic acid in Na-HBS buffer (Hepes buffered saline: 145 mM NaCl, 5.4 mM KCl, 1.8 mM CaCl2, 1 mM MgCl2, 25 mM glucose, 20 mM Hepes/Tris pH 7.4) for 30 min at 37° C. The cells were superfused (1 ml/min, 37° C.) with different concentrations of nucleotide in Na-HBS buffer, and the nucleotide-induced change of [Ca^2+]i was measured by detecting the respective emission intensity of fura 2/AM at 510 nm with after 340 nm and 380 nm excitations (Ubl et al., 1998). The average maximal amplitude of the responses and the respective standard errors were calculated from the ratio of the fura 2/AM fluorescence intensities with excitations at 340 nm and 380 nm (only MT-labeled cells were analysed). Microsoft Excel (Microsoft Corp., Redmond, Wash., USA) and SigmaPlot (SPSS Inc., Chicago, Ill., USA) were used to derive the concentration-response curves and EC50 values from the average response amplitudes obtained in at least three independent experiments (Ecke et al., 2006, 2008). Only cells with a clear MT-signal and with the typical calcium response kinetics upon agonist pulse application were included in the data analysis. The GFP-tagged P2Y receptors are suitable for pharmacological and physiological studies, as previously reported (Tulapurkar et al., 2004, 2006; Zylberg et al., 2007).
1321N1 cell lines stably expressing the human P2Y6 receptors were grown as previously described in DMEM (5% FBS, 100 IU/ml penicillin, 100 μg/ml streptomycin, 1× Glutamax, 10 mM Hepes and 0.5 mg/ml G-418) at 37° C. in a humidified atmosphere containing 5% CO2 and 95% air (Gendron et al., 2003).
1321N1 cells (10×10^6 cells grown in 10 cm^2 dishes) were harvested by a brief trypsin/EDTA treatment, suspended in complete culture medium, and washed by centrifugation for 3 min at 100×g before being incubated with 1 μM Fluo 4/AM in 4.5 ml HBSS with Ca^2+ and Mg^2+ (Wisent, St. Bruno, QC) for 25 min at 37° C. Cells were washed by centrifugation (100×g, 3 min), suspended in HBSS containing Ca^2+ and Mg^2+, and incubated for 25 min at 37° C. Cells were washed and suspended in 16 ml of FIBSS containing Ca^+ and Mg^2+. Cell suspension (2 ml) was gently stirred in a quartz cuvette while [Ca^2+]i and monitored on a RF-5301 PC Shimadzu spectrofluorometer with Panormama fluorescence 1.1 software (Man-Tech, Guelph, ON). Excitation wavelengths of 488 nm and emission wavelength of 520 nm were used to measure changes in intracellular Fluo 4 fluorescence intensity (F). At the end of each recording, maximal fluorescence (Fmax) and minimal fluorescence (Fmin) were determined by adding successively 0.1% Triton X-100 and 50 mM EDTA to cell suspensions. The following equation from Grynkiewicz et al. (1985) was used to relate the fluorescence intensity to Ca^2+ levels: [Ca^2+]=Kd×(F−Fmin)/(Fmax−F), wherein Kd is the Ca^+ dissociation constant of the indicator (345 nM). […]

[3] = biological target: P2Y6-receptor (Homo sapiens, UniProt Q15077); conditions: Ginsburg-Shmuel et al., 2010; read-out: EC50 at P2Y6-receptor (literature); cited from earlier work
Chain of P2Y6-receptor (Q15077 whole entry): as above

| EC50 [2] | Potency of A-isomer relative to the corresponding B-isomer at P2Y6-R ([2]; ratio of EC50 values) | Compound | Reduction of IOP [1] | Duration of action (IOP reduction) [1] | EC50 [3] |
| --- | --- | --- | --- | --- | --- |
|  |  | COc1cn([C@@H]2O[C@H](COP(=O)(O)OP(=O)(O)O)[C@@H](O)[C@H]2O)c(=O)[nH]c1=O [Analogue 12, 5-methoxyuridine diphosphate] | 31% |  |  |
| 8 nM | more than 500 fold | [BH3-][P+](O)(OCC1OC(n2cc(OC)c(=O)[nH]c2=O)C(O)C1O)OP(=O)(O)O (single isomer, unassigned) [Analogue 13A, 5-methoxyuridine-5′-O-(α-boranodiphosphate)] | 45% | about 4 h |  |
| 150 nM |  | O=c1ccn([C@@H]2O[C@H](COP(=O)(O)OP(=O)(O)O)[C@@H](O)[C@H]2O)c(=O)[nH]1 [UDP, reference compound] |  |  | 140 nM |
